This is an account of results in PubChem BioAssay (NCI).

Test systems include 786-0 renal; CCRF-CEM leukemia; OVCAR-8 ovarian; SF-268 CNS; NCI-H23 lung; UO-31 renal; SN12C renal; OVCAR-3 ovarian; IGROV1 ovarian.
Common to all, as to assay: NCI anticancer screen, dose series, 48 h

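The compound was tested at five concentrations on cells cultured in 96-well plates, with a 48-hour exposure period. Abbreviation: GI50, concentration required for 50% inhibition of growth. TGI: concentration producing complete growth inhibition.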

As to `NC(=O)NS(=O)(=O)c1ccc(N2N=C(C(F)(F)F)CC2c2cc(C(F)(F)F)cc(C(F)(F)F)c2)cc1` (configuration not stated), the GI50 in the assay with 786-0 renal is 7.14 µM; in the assay on CCRF-CEM leukemia, 2.94 µM; in the assay with OVCAR-8 ovarian it was 4.78 µM; in the assay on SF-268 CNS it was 2.96 µM; in the assay on NCI-H23 lung it was 5.32 µM; in the assay with UO-31 renal it was 0.0862 µM. Also, the GI50 in the assay on SN12C renal was 2.1 µM; in the assay with OVCAR-3 ovarian, 1.83 µM. For the same compound, the TGI amounted to 22.7 µM with 786-0 renal; 19.9 µM with CCRF-CEM leukemia; 20 µM in the assay on OVCAR-8 ovarian; 12.3 µM in the assay with SF-268 CNS; 19.2 µM with NCI-H23 lung; 13.2 µM with UO-31 renal. The figures for the TGI in the assay with SN12C renal and in the assay with OVCAR-3 ovarian were 4.51 µM and 4.12 µM, respectively.

In the case of `O=c1cc(-c2ccccc2)oc2cc(OC/C(=N/O)c3ccccc3)ccc12`, the GI50 in the assay on 786-0 renal is 26.1 µM; in the assay with OVCAR-8 ovarian, 32.8 µM; in the assay with SF-268 CNS, 11.5 µM; in the assay on NCI-H23 lung, 22.6 µM; in the assay on UO-31 renal it was 18.4 µM; in the assay with SN12C renal, 10.9 µM. In the assay with OVCAR-3 ovarian, the GI50 is 12.8 µM. Further, the TGI in the assay with 786-0 renal is over 50 µM; in the assay on OVCAR-8 ovarian, over 50 µM; with SF-268 CNS it was 31 µM; in the assay on NCI-H23 lung, over 50 µM; in the assay on UO-31 renal it was over 50 µM; in the assay on SN12C renal, 44.6 µM. Besides, in the assay with OVCAR-3 ovarian, the TGI was over 50 µM.

Turning to `CNC(=O)C1CCc2nnc(-c3ccccc3)n21` (configuration not stated), the TGI in the assay on 786-0 renal, in the assay with CCRF-CEM leukemia, in the assay on SF-268 CNS, in the assay with UO-31 renal, in the assay with SN12C renal and in the assay with IGROV1 ovarian was over 100 µM in each case. The TGI in the assay with OVCAR-3 ovarian is over 100 µM.

For the compound `C[N+]1=C(/C=C/c2ccc(O)c3ncccc23)C(C)(C)c2ccccc21`, the GI50 in the assay with 786-0 renal is 3.57 µM; in the assay with CCRF-CEM leukemia it was 3.1 µM; in the assay with OVCAR-8 ovarian, 3.55 µM; with SF-268 CNS, 2.73 µM; in the assay with NCI-H23 lung it was 2.62 µM; in the assay with UO-31 renal, 0.58 µM. Besides, the values for the GI50 in the assay on SN12C renal and with OVCAR-3 ovarian were 2.82 µM and 2.1 µM, respectively. In addition, the TGI with 786-0 renal is 13 µM; in the assay with CCRF-CEM leukemia, 26 µM; with OVCAR-8 ovarian, over 100 µM; in the assay on SF-268 CNS, 14.1 µM; in the assay with NCI-H23 lung, 8.54 µM; in the assay with UO-31 renal, 5.73 µM. The TGI was 10.4 µM in the assay on SN12C renal and 5.46 µM with OVCAR-3 ovarian.

Turning to `O=S(=O)(NC1=NCCN1C(=S)SN1CCn2c1nsc2=S)c1cccc(Cl)c1`, the GI50 was 19.9 µM in the assay with 786-0 renal; 3.81 µM with CCRF-CEM leukemia; 26.4 µM in the assay on OVCAR-8 ovarian; 20.2 µM in the assay on SF-268 CNS; 14.4 µM in the assay on UO-31 renal; 14.9 µM in the assay on SN12C renal. Moreover, the GI50 in the assay on IGROV1 ovarian was 12.4 µM; with OVCAR-3 ovarian it was 12.9 µM. In addition, the TGI with 786-0 renal is 55.3 µM; in the assay with CCRF-CEM leukemia, over 100 µM; with OVCAR-8 ovarian, over 100 µM; in the assay with SF-268 CNS, 46.7 µM; with UO-31 renal, 28.6 µM; in the assay on SN12C renal, 40.6 µM. For the same compound, the TGI in the assay on IGROV1 ovarian came to 36.8 µM; with OVCAR-3 ovarian, 28.5 µM.

Take `COc1ccc2c(c1)C(=O)c1c-2n(CCCn2ccnc2)c(=O)c2cc([N+](=O)[O-])ccc12`: the GI50 in the assay with 786-0 renal, in the assay with OVCAR-8 ovarian, in the assay with SF-268 CNS, in the assay on NCI-H23 lung, in the assay with UO-31 renal and with SN12C renal was under 0.01 µM in each case. In addition, the values for the GI50 in the assay with IGROV1 ovarian and in the assay on OVCAR-3 ovarian were under 0.01 µM and 0.0254 µM, respectively. Moreover, the TGI in the assay on OVCAR-8 ovarian was over 45.7 µM; with SF-268 CNS, over 75.5 µM; in the assay on NCI-H23 lung, under 0.01 µM; with UO-31 renal it was 0.38 µM; in the assay on SN12C renal, over 100 µM; in the assay with IGROV1 ovarian, 25.2 µM. The same compound showed a TGI in the assay with OVCAR-3 ovarian of 4.41 µM.

`Cc1cccc(C(C)C)c1NC(=O)/C(Cc1c([N+](=O)[O-])cccc1[N+](=O)[O-])=N/NC(=O)CC#N`: the TGI with 786-0 renal, with CCRF-CEM leukemia, with SF-268 CNS, in the assay on UO-31 renal, in the assay on IGROV1 ovarian and with OVCAR-3 ovarian was over 100 µM throughout.

`O=C(CC1(O)C(=O)Nc2c(Cl)ccc(Cl)c21)c1ccc(F)cc1` (configuration not stated): the TGI was over 100 µM in the assay on 786-0 renal; over 100 µM with CCRF-CEM leukemia; over 100 µM in the assay with OVCAR-8 ovarian; over 100 µM in the assay with SF-268 CNS; 60.6 µM in the assay with NCI-H23 lung; over 100 µM in the assay on UO-31 renal. The TGI with SN12C renal and in the assay with OVCAR-3 ovarian was over 100 µM each time.

For `O=C(O)/C=C(\c1nc2ccc([N+](=O)[O-])cc2[nH]1)c1cc(Cl)ccc1O`, the GI50 is 3.77 µM in the assay with 786-0 renal; 2.51 µM in the assay with CCRF-CEM leukemia; 3.28 µM in the assay on OVCAR-8 ovarian; 3.62 µM in the assay on SF-268 CNS; 1.96 µM with NCI-H23 lung; 1.54 µM in the assay on UO-31 renal. Moreover, the GI50 in the assay on SN12C renal is 2.71 µM; with IGROV1 ovarian it was 2.92 µM. Also, the TGI in the assay with 786-0 renal is 28.3 µM; in the assay with CCRF-CEM leukemia it was 12.7 µM; in the assay on OVCAR-8 ovarian, over 100 µM; in the assay with SF-268 CNS, 28.3 µM; in the assay with NCI-H23 lung, 19.6 µM; in the assay on UO-31 renal, 9.01 µM. The values for the TGI with SN12C renal and with IGROV1 ovarian were 33.8 µM and 39.5 µM, respectively.

As to `CCC[CH2][Sn]1([CH2]CCC)[O]C(=O)CN=Cc2c(ccc3ccccc23)[O]1`, the GI50 in the assay with 786-0 renal was 0.487 µM; in the assay on OVCAR-8 ovarian it was over 100 µM; with SF-268 CNS, 0.351 µM; in the assay with NCI-H23 lung it was 0.235 µM; in the assay with UO-31 renal, 0.635 µM; with SN12C renal, 0.374 µM. In addition, the GI50 with IGROV1 ovarian was 2.48 µM; with OVCAR-3 ovarian it was 0.706 µM. Moreover, the TGI was 1.81 µM in the assay on 786-0 renal; over 100 µM with OVCAR-8 ovarian; 1.18 µM with SF-268 CNS; 1.11 µM with NCI-H23 lung; 1.92 µM in the assay with UO-31 renal; 1.39 µM with SN12C renal. Besides, the figures for the TGI in the assay on IGROV1 ovarian and with OVCAR-3 ovarian were over 100 µM and 1.95 µM, respectively.

For `O=C(CC1(O)C(=O)Nc2ccccc21)c1ccncc1` (configuration not stated), the TGI with 786-0 renal, with CCRF-CEM leukemia, with SF-268 CNS, in the assay with NCI-H23 lung, in the assay on UO-31 renal and with SN12C renal was over 100 µM in each case. This compound also had a TGI with IGROV1 ovarian of over 100 µM.
